Key:
Type in all cases: cell-based, human
T cells [1] = test: Chemotherapeutic selection of T cells: cell death by propidium iodide staining;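 also: CD3 microbead-isolated T cells cultured with chemotherapy drugs, dead cells scored as propidium iodide-positive by flow cytometry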
Method: (§4) T cells were isolated using CD3 microbeads. Cells were resuspended in T cell culture medium and treated under the following conditions. • 1. High dose Vincristine Treatment: Cells were treated with Vincristine (Sigma) at doses of 100, 250, 500, 750, 1000 ng/ml for 24 h. The following day, the medium was changed and cells cultured in Vincristine-free medium. • 2. Intermediate Dose Vincristine Treatment: Cells were treated with vincristine at intermediate doses of 5, 10, 20, 30, 50 ng/ml with continuous exposure of the drug thereafter. • 3. Low dose Vincristine Treatment: Cells were treated with vincristine at low doses 0.5, 1, 2, 2.5, 3 ng/ml with continuous exposure to the drug thereafter.
(§5) Cells were treated with Etoposide at dose 100, 500, 1000 nM • 6. Cells were treated with Adriamycin (doxorubicin) at 0.1, 0.5, 1 μg/ml
(§6) T cells treated with intermediate and high dose of vincristine were checked for Pgp^+ enrichment by DiOC2(3) efflux assay and cell death by Propidium iodide staining after 2 days of treatment. Cells were analyzed by flow cytometry.

Pgp^+ T cells = test: Chemotherapeutic selection of T cells: Pgp+ enrichment by DiOC2(3) efflux assay; details: for % pgp+ (out of live cells): 8 days post-treatment; for % Pgp^+ (DiOC2(3)-dull) (out of live cells): 2 days post-treatment; for % Pgp+ (DiOC2(3)-dull) (gated on live cells): 7 days post-treatment;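 as to all read-outs here: CD3-isolated T cells exposed to chemotherapeutics, then loaded with DiOC2(3) and left to efflux dye, PI stained, flow cytometry, Pgp+ cells read as DiOC2(3)-dull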
Method: Half (6 million) of the T cells were left untreated while the remaining half were treated with 10 μM of TH9402 compound. Cells were incubated at 37° C. in a water bath in dark for 40 min, washed with T-cell medium and then resuspended in TH9402-free T-cell medium. Cells were allowed to efflux TH9402 at 37° C. in dark in 10 ml of T cell medium for 2 h. Cells were centrifuged and re-suspended in fresh medium. Each sample was then plated in 2 wells of two different 6-well plates. One plate was left unexposed to light and the second plate was exposed for 1 h to light (1000×10 Lux units) from an LED lamp. […] After light exposure, cells were incubated in the XVIVO T cell medium with 5 ng/ml IL7 at 37° C. for 2 days in a 5% CO2 incubator. After 2 days, an aliquot of the cells were stained at 4° C. for 40 min with DiOC2(3) (60 ng/ml) in 10 ml RPMI with 10% FBS medium. DiOC2(3) is a known substrate of Pgp. Cells were centrifuged, washed, resuspended in 10 ml of dye-free RPMI-10% FBS medium to efflux dye at 37° C. for 90 min. After Dye efflux, the cells were stained with Propidium iodide (PI) and examined by flow cytometry.
as §4, §5, §6

T cells [2] = test: Photodynamic cell therapy with TH9402: live T cells by flow cytometry / propidium iodide; details: for % live cells (Propidium iodide negative): after 9 days
Method: (§1) T cells were isolated using PAN T-cell isolation kit (Miltenyi cat no. 130-096-535) from buffy coat preparation following Ficoll-Hypaque separation and RBC lysis as described above. 12 million T cells were resuspended at 1 million cells/ml in XVIVO T cell medium (Lonza) supplemented with 5 ng/ml IL7. Half (6 million) of the T cells were left untreated while the remaining half were treated with 10 μM of TH9402 compound. Cells were incubated at 37° C. in a water bath in dark for 40 min, washed with T-cell medium and then resuspended in TH9402-free T-cell medium. Cells were allowed to efflux TH9402 at 37° C. in dark in 10 ml of T cell medium for 2 h. Cells were centrifuged and re-suspended in fresh medium. Each sample was then plated in 2 wells of two different 6-well plates. One plate was left unexposed to light and the second plate was exposed for 1 h to light (1000×10 Lux units) from an LED lamp. Alternatively, light treatment can be achieved by exposure to a fluorescent light-scanning device (PDCT-Xerox Series 4, Theratechnologies) delivering 5 J/cm^2 at wavelength of 514 nm. After light exposure, cells were incubated in the XVIVO T cell medium with 5 ng/ml IL7 at 37° C. for 2 days in a 5% CO2 incubator. After 2 days, an aliquot of the cells were stained at 4° C. for 40 min with DiOC2(3) (60 ng/ml) in 10 ml RPMI with 10% FBS medium. DiOC2(3) is a known substrate of Pgp. Cells were centrifuged, washed, resuspended in 10 ml of dye-free RPMI-10% FBS medium to efflux dye at 37° C. for 90 min. After Dye efflux, the cells were stained with Propidium iodide (PI) and examined by flow cytometry. […] Furthermore, in the group that was treated with the TH9402 compound and then exposed to light, there was further enrichment for Pgp-expressing T cells (from 10% to 80%).
(§2) After 6 days, 250 μl cell aliquot from T cells were stained with DiOC2(3), allowed to efflux the dye and then stained with CD62L-APC, a marker present on human memory stem T cells (TSCM) with stem like properties.
(§3) After 9 days, 1 ml cell aliquot from T cells were stained with DiOC2(3), allowed to efflux the dye and then stained with CD62L-APC, a marker present on human memory stem T cells (TSCM) with stem like properties. Cells were then analyzed by flow cytometry. The % of cells in the different fractions are shown in FIG. 2 and the following table which show there is a significant decline in cell viability following exposure to light in both TH9402-treated and untreated cells.

Pgp-expressing T cells = test: Photodynamic cell therapy with TH9402: Pgp+ T cells by DiOC2(3) efflux (and CD62L staining); details: for % Pgp^+ cells (DiOC2(3)-dull): after 2 days
Method: as §1, §2, §3

PBMC = test: Photodynamic TH9402 experiment repeated with PBMC; details: PBMC rather than purified T cells
[3] = 10 μM TH9402, 1 h exposure to light, after 6 days
[4] = 10 μM TH9402, 1 h exposure to light
[5] = 10 μM TH9402, unexposed to light, after 6 days
[6] = 10 μM TH9402, unexposed to light
[7] = 10 μM TH9402, 1 h exposure to light, after 9 days
[8] = 10 μM TH9402, unexposed to light, after 9 days
[9] = 100 ng/ml for 24 h then drug-free medium
[10] = 250 ng/ml for 24 h then drug-free medium
[11] = 500 ng/ml for 24 h then drug-free medium
[12] = 750 ng/ml for 24 h then drug-free medium
[13] = 1 μg/ml for 24 h then drug-free medium

COc1cccc2c1C(=O)c1c(O)c3c(c(O)c1C2=O)C[C@@](O)(C(=O)CO)C[C@@H]3O[C@H]1C[C@H](N)[C@H](O)[C@H](C)O1 [Adriamycin, doxorubicin]
% Cell Death (PI+ cells) (T cells [1]; 8 days post-treatment, 0.1 μg/ml): 5%
% Cell Death (PI+ cells) (T cells [1]; 8 days post-treatment, 0.5 μg/ml): 7%
% Cell Death (PI+ cells) (T cells [1]; 8 days post-treatment, 1 μg/ml): 12%
enrichment of Pgp^+ or DiOC2(3)-dull cells (in words) (Pgp^+ T cells; 1 μg/ml, after 8 days of treatment): significant enrichment
% pgp+ (out of live cells) (Pgp^+ T cells; 0.1 μg/ml): 16%
% pgp+ (out of live cells) (Pgp^+ T cells; 0.5 μg/ml): 16%
% pgp+ (out of live cells) (Pgp^+ T cells; 1 μg/ml): 27%

COc1cc([C@@H]2c3cc4c(cc3[C@@H](O[C@@H]3O[C@@H]5CO[C@@H](C)O[C@H]5[C@H](O)[C@H]3O)[C@H]3COC(=O)[C@H]23)OCO4)cc(OC)c1O [Etoposide]
% Cell Death (PI+ cells) (T cells [1]; 8 days post-treatment, 0.1 uM): 5%
% Cell Death (PI+ cells) (T cells [1]; 8 days post-treatment, 1 uM): 5%
% Cell Death (PI+ cells) (T cells [1]; 8 days post-treatment, 0.5 unM): 4%
% pgp+ (out of live cells) (Pgp^+ T cells; 0.1 uM): 15%
% pgp+ (out of live cells) (Pgp^+ T cells; 1 uM): 15%
% pgp+ (out of live cells) (Pgp^+ T cells; 0.5 unM): 16%

CO[C@H]1C[C@@H]2CC[C@@H](C)[C@@](O)(O2)C(=O)C(=O)N2CCCC[C@H]2C(=O)O[C@H]([C@H](C)C[C@@H]2CC[C@@H](O)[C@H](OC)C2)CC(=O)[C@H](C)/C=C(\C)[C@@H](O)[C@@H](OC)C(=O)[C@H](C)C[C@H](C)/C=C/C=C/C=C/1C [Rapamycin]
% Cell Death (PI+ cells) (T cells [1]; 8 days post-treatment, 100 ng/ml): 11%
% pgp+ (out of live cells) (Pgp^+ T cells; 100 ng/ml): 15%

COC(=O)c1ccccc1-c1c2ccc(=N)c(Br)c-2oc2c(Br)c(N)ccc12 [TH9402]
% live cells (P1) (T cells [2]; 10 μM TH9402, 1 h exposure to light, after 2 days): 10%
% live cells (P1) (T cells [2]; [3]): 14%
% live cells (Propidium iodide negative) (T cells [2]; [4]): 27%
% live cells (P1) (T cells [2]; 10 μM TH9402, unexposed to light, after 2 days): 78%
% live cells (P1) (T cells [2]; [5]): 75%
% live cells (Propidium iodide negative) (T cells [2]; [6]): 79%
% Pgp^+ cells (DiOC2(3)-dull) (Pgp-expressing T cells; [4]): 80%
% Pgp^+ (DiOC2(3)-dull cells (based on dye efflux) (gated on live cells)) (Pgp-expressing T cells; [3]): 70%
% Pgp^+ (DiOC2(3)-dull), CD62L+ cells (gated on live cells) (Pgp-expressing T cells; [3]): 69%
% Pgp^+ (DiOC2(3)-dull cells (based on dye efflux) (gated on live cells)) (Pgp-expressing T cells; [7]): 79%
% Pgp^+ (DiOC2(3)-dull), CD62L+ cells (gated on live cells) (Pgp-expressing T cells; [7]): 67%
% Pgp^+ cells (DiOC2(3)-dull) (Pgp-expressing T cells; [6]): 10%
% Pgp^+ (DiOC2(3)-dull cells (based on dye efflux) (gated on live cells)) (Pgp-expressing T cells; [5]): 4%
% Pgp^+ (DiOC2(3)-dull), CD62L+ cells (gated on live cells) (Pgp-expressing T cells; [5]): 2%
% Pgp^+ (DiOC2(3)-dull cells (based on dye efflux) (gated on live cells)) (Pgp-expressing T cells; [8]): 45%
% Pgp^+ (DiOC2(3)-dull), CD62L+ cells (gated on live cells) (Pgp-expressing T cells; [8]): 21%
enrichment of Pgp-expressing cells, experiment repeated with PBMC (PBMC): Essentially similar results

COc1ccc(CCN(C)CCCC(C#N)(c2ccc(OC)c(OC)c2)C(C)C)cc1OC (stereo not drawn) [Verapamil]
% Cell Death (PI+ cells) (T cells [1]; 8 days post-treatment, 1 uM): 4%
% Cell Death (PI+ cells) (T cells [1]; 8 days post-treatment, 5 uM): 3%
% Cell Death (PI+ cells) (T cells [1]; 8 days post-treatment, 10 uM): 3%

CC[C@]1(O)C[C@H]2CN(CCc3c([nH]c4ccccc34)[C@@](C(=O)OC)(c3cc4c(cc3OC)N(C=O)[C@H]3[C@@](O)(C(=O)OC)[C@H](OC(C)=O)[C@]5(CC)C=CCN6CC[C@]43[C@@H]65)C2)C1 [Vincristine]
% Cell Death (PI+ cells) (T cells [1]; 2 days post-treatment, 5 ng/ml, continuous exposure): 13%
% Cell Death (PI+ cells) (T cells [1]; 2 days post-treatment, 10 ng/ml, continuous exposure): 15%
% Cell Death (PI+ cells) (T cells [1]; 2 days post-treatment, 20 ng/ml, continuous exposure): 15%
% Cell Death (PI+ cells) (T cells [1]; 2 days post-treatment, 30 ng/ml, continuous exposure): 20%
% Cell Death (PI+ cells) (T cells [1]; 2 days post-treatment, 50 ng/ml, continuous exposure): 15%
% Cell Death (PI+ cells) (T cells [1]; 2 days post-treatment, 100 ng/ml for 24 h then drug-free medium): 28%
% Cell Death (PI+ cells) (T cells [1]; 2 days post-treatment, 250 ng/ml for 24 h then drug-free medium): 31%
% Cell Death (PI+ cells) (T cells [1]; 2 days post-treatment, 500 ng/ml for 24 h then drug-free medium): 27%
% Cell Death (PI+ cells) (T cells [1]; 2 days post-treatment, 750 ng/ml for 24 h then drug-free medium): 30%
% Cell Death (PI+ cells) (T cells [1]; 2 days post-treatment, 1 μg/ml for 24 h then drug-free medium): 31%
% Cell Death (PI+ cells) (T cells [1]; 7 days post-treatment, 0.5 ng/ml, continuous exposure): 10%
% Cell Death (PI+ cells) (T cells [1]; 7 days post-treatment, 1 ng/ml, continuous exposure): 12%
% Cell Death (PI+ cells) (T cells [1]; 7 days post-treatment, 2 ng/ml, continuous exposure): 8%
% Cell Death (PI+ cells) (T cells [1]; 7 days post-treatment, 2.5 ng/ml, continuous exposure): 10%
% Cell Death (PI+ cells) (T cells [1]; 7 days post-treatment, 3 ng/ml, continuous exposure): 14%
% Cell Death (PI+ cells) (T cells [1]; 7 days post-treatment, 5 ng/ml, continuous exposure): 9%
% Cell Death (PI+ cells) (T cells [1]; 7 days post-treatment, 10 ng/ml, continuous exposure): 9%
% Cell Death (PI+ cells) (T cells [1]; 7 days post-treatment, 20 ng/ml, continuous exposure): 9%
% Cell Death (PI+ cells) (T cells [1]; 7 days post-treatment, 50 ng/ml, continuous exposure): 14%
% Cell Death (PI+ cells) (T cells [1]; 7 days post-treatment, 100 ng/ml for 24 h then drug-free medium): 16%
% Cell Death (PI+ cells) (T cells [1]; 7 days post-treatment, 250 ng/ml for 24 h then drug-free medium): 25%
% Cell Death (PI+ cells) (T cells [1]; 7 days post-treatment, 500 ng/ml for 24 h then drug-free medium): 26%
% Cell Death (PI+ cells) (T cells [1]; 7 days post-treatment, 750 ng/ml for 24 h then drug-free medium): 29%
% Cell Death (PI+ cells) (T cells [1]; 7 days post-treatment, 1 μg/ml for 24 h then drug-free medium): 23%
% Pgp^+ (DiOC2(3)-dull) (out of live cells) (Pgp^+ T cells; 5 ng/ml, continuous exposure): 8%
% Pgp^+ (DiOC2(3)-dull) (out of live cells) (Pgp^+ T cells; 10 ng/ml, continuous exposure): 9%
% Pgp^+ (DiOC2(3)-dull) (out of live cells) (Pgp^+ T cells; 20 ng/ml, continuous exposure): 9%
% Pgp^+ (DiOC2(3)-dull) (out of live cells) (Pgp^+ T cells; 30 ng/ml, continuous exposure): 11%
% Pgp^+ (DiOC2(3)-dull) (out of live cells) (Pgp^+ T cells; 50 ng/ml, continuous exposure): 10%
% Pgp^+ (DiOC2(3)-dull) (out of live cells) (Pgp^+ T cells; [9]): 11%
% Pgp^+ (DiOC2(3)-dull) (out of live cells) (Pgp^+ T cells; [10]): 11%
% Pgp^+ (DiOC2(3)-dull) (out of live cells) (Pgp^+ T cells; [11]): 13%
% Pgp^+ (DiOC2(3)-dull) (out of live cells) (Pgp^+ T cells; [12]): 14%
% Pgp^+ (DiOC2(3)-dull) (out of live cells) (Pgp^+ T cells; [13]): 14%
% Pgp+ (DiOC2(3)-dull) (gated on live cells) (Pgp^+ T cells; 0.5 ng/ml, continuous exposure): 7%
% Pgp+ (DiOC2(3)-dull) (gated on live cells) (Pgp^+ T cells; 1 ng/ml, continuous exposure): 7%
% Pgp+ (DiOC2(3)-dull) (gated on live cells) (Pgp^+ T cells; 2 ng/ml, continuous exposure): 7%
% Pgp+ (DiOC2(3)-dull) (gated on live cells) (Pgp^+ T cells; 2.5 ng/ml, continuous exposure): 7%
% Pgp+ (DiOC2(3)-dull) (gated on live cells) (Pgp^+ T cells; 3 ng/ml, continuous exposure): 9%
% Pgp+ (DiOC2(3)-dull) (gated on live cells) (Pgp^+ T cells; 5 ng/ml, continuous exposure): 8%
% Pgp+ (DiOC2(3)-dull) (gated on live cells) (Pgp^+ T cells; 10 ng/ml, continuous exposure): 10%
% Pgp+ (DiOC2(3)-dull) (gated on live cells) (Pgp^+ T cells; 20 ng/ml, continuous exposure): 10%
% Pgp+ (DiOC2(3)-dull) (gated on live cells) (Pgp^+ T cells; 50 ng/ml, continuous exposure): 9%
% Pgp+ (DiOC2(3)-dull) (gated on live cells) (Pgp^+ T cells; [9]): 13%
% Pgp+ (DiOC2(3)-dull) (gated on live cells) (Pgp^+ T cells; [10]): 11%
% Pgp+ (DiOC2(3)-dull) (gated on live cells) (Pgp^+ T cells; [11]): 9%
% Pgp+ (DiOC2(3)-dull) (gated on live cells) (Pgp^+ T cells; [12]): 10%
% Pgp+ (DiOC2(3)-dull) (gated on live cells) (Pgp^+ T cells; [13]): 18%
enrichment of Pgp^+ cells (in words) (Pgp^+ T cells; higher dose treatments, after 2 days): modest enrichment

Reference: patent US12415987B2, “Methods and composition for producing and using immune cells and stem cells for cell-based therapies” (Angeles Therapeutics, Inc., priority 2016, dated 2025)
